Where two headings read alike, the source gives them in different places.
What was measured:
HDAC6 [1] = target: T1, HDAC6 (Homo sapiens (Human), UniProt Q9UBN7); assay: biochemical
HDAC1 = HDAC1 (Homo sapiens (Human), UniProt Q13547); assay: HDAC enzyme assay, HDAC1; conditions: for HDAC1 fold over HDAC6 IC50 (selectivity for HDAC6): ratio HDAC1/HDAC6
HDAC2 = HDAC2 (Homo sapiens (Human), UniProt Q92769); assay: HDAC enzyme assay, HDAC2; conditions: for HDAC2 fold over HDAC6 IC50 (selectivity for HDAC6): ratio HDAC2/HDAC6
HDAC3 = HDAC3 (Homo sapiens (Human), UniProt O15379); assay: HDAC enzyme assay, HDAC3; conditions: for HDAC3 fold over HDAC6 IC50 (selectivity for HDAC6): ratio HDAC3/HDAC6
HDAC6 [2] = target: T1, HDAC6; conditions: read-out: HDAC6 IC50
refractory relapsed MM = conditions: 202 patients with refractory relapsed MM; cited from earlier work

HDAC1, sequence (Q13547 whole entry): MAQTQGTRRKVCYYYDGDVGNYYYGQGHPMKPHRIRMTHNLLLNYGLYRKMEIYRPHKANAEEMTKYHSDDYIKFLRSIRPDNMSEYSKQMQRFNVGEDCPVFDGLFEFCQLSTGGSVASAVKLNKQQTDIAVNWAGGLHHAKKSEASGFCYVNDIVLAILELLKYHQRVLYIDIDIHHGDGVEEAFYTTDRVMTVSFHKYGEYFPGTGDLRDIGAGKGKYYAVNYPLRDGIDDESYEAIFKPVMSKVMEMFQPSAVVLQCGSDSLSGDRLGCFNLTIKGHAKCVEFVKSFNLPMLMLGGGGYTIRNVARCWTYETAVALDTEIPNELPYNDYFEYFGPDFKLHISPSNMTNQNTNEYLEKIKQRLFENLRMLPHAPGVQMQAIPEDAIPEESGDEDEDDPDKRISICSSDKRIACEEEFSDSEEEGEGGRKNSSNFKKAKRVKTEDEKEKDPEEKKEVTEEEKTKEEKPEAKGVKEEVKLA
HDAC2, sequence (Q92769 whole entry): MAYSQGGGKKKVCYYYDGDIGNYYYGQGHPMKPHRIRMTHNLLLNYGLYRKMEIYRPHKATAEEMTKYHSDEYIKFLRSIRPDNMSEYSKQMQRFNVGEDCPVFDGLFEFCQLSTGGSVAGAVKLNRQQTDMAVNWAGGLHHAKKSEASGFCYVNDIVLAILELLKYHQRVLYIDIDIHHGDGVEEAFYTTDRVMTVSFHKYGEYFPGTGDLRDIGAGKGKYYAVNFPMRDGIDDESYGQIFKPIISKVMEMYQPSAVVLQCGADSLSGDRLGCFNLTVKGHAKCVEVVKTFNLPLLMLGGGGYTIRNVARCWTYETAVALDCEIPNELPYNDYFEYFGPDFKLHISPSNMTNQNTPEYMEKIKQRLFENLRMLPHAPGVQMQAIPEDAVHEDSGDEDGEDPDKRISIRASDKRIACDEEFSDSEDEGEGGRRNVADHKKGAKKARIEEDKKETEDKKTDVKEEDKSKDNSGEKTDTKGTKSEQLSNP
T1 sequence (Q9UBN7 whole entry): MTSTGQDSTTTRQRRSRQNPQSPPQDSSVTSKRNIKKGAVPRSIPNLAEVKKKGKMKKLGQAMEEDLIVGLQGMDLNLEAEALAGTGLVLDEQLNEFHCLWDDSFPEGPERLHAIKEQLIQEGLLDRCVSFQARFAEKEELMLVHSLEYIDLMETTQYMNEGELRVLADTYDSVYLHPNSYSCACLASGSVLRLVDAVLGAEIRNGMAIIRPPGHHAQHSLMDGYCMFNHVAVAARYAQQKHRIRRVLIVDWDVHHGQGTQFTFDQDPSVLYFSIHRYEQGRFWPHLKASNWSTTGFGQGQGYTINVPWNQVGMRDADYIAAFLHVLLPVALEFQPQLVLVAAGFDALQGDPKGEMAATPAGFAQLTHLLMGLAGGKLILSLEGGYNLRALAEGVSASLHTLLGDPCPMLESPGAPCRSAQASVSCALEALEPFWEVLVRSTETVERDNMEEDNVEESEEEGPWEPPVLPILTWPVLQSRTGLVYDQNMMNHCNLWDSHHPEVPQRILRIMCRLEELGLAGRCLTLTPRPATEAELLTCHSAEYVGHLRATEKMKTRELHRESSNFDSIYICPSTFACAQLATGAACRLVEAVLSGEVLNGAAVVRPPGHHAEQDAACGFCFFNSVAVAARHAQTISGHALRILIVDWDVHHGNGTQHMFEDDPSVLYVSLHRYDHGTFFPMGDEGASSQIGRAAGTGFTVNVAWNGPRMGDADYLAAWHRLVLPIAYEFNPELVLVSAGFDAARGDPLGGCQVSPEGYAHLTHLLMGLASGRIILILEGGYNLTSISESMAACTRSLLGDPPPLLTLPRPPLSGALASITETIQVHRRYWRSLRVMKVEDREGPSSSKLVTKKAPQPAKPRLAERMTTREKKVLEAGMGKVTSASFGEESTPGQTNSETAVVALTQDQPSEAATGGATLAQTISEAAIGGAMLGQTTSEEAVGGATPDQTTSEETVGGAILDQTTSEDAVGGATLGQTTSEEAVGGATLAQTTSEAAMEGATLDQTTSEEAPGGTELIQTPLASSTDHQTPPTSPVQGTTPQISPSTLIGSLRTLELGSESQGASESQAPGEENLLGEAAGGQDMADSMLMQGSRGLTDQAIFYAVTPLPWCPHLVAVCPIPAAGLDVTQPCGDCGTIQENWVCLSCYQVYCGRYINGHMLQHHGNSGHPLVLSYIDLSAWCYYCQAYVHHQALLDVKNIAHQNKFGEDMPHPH
HDAC3, sequence (O15379 whole entry): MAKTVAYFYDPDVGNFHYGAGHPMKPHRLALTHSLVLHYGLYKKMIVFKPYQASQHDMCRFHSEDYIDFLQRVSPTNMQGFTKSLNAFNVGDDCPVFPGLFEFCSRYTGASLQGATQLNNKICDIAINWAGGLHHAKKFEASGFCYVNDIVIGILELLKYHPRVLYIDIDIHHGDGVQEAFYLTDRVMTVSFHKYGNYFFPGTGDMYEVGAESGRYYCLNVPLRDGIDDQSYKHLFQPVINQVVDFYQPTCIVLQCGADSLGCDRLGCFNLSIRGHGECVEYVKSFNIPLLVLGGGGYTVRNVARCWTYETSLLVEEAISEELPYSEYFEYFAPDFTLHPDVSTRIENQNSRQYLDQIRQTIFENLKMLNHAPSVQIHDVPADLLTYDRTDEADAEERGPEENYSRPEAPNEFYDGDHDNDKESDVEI
HDAC3, sequence (Q9Y618 395-489 partner): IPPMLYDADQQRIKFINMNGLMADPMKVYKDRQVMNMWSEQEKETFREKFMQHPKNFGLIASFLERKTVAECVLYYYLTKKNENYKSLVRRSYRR

SMILES	IC50 (HDAC6 [1]) [nM]	IC50 (HDAC1) [nM]	HDAC1 fold over HDAC6 IC50 (selectivity for HDAC6) (HDAC1)	IC50 (HDAC2) [nM]	HDAC2 fold over HDAC6 IC50 (selectivity for HDAC6) (HDAC2)	IC50 (HDAC3) [nM]	HDAC3 fold over HDAC6 IC50 (selectivity for HDAC6) (HDAC3)	IC50 (HDAC6 [2]) [nM]	IC50 (HDAC1; read-out: HDAC1 IC50) [nM]	IC50 (HDAC2; read-out: HDAC2 IC50) [nM]	IC50 (HDAC3; read-out: HDAC3 IC50) [nM]	complete and near complete responses (refractory relapsed MM) [%]	patients did not respond (refractory relapsed MM) [%]	responses (refractory relapsed MM) [%]
COc1ccc(C2(Nc3ncc(C(=O)NO)cn3)CC2)cc1 [Compound 97]	2	19	(8.3x)	28	(12.1x)	37	(16.4x)	–	–	–	–	–	–	–
COc1ccccc1C1(Nc2ncc(C(=O)NO)cn2)CC1 [Compound 133]	–	–	(188x)	–	(152.9x)	–	(229.8x)	3	594	483	727	–	–	–
O=C(NO)c1cnc(NC2(c3ccc(C(F)(F)F)cc3)CC2)nc1 [Compound 135]	–	–	(22.4x)	–	(17.7x)	–	(51.8x)	7	149	118	344	–	–	–
O=C(NO)c1cnc(NC2(c3ccc(C(F)(F)F)c(F)c3)CC2)nc1 [Compound 137]	–	–	(7.1x)	–	(5.5x)	–	(18.5x)	4	27	21	70	–	–	–
COc1ccc(C2(Nc3ncc(C(=O)NO)cn3)CC2)cc1OC [Compound 138]	–	–	(6.2x)	–	(6x)	–	(13.9x)	8	50	49	113	–	–	–
COc1ccc(Cl)cc1C1(Nc2ncc(C(=O)NO)cn2)CC1 [Compound 139]	–	–	(90.9x)	–	(112.8x)	–	(184x)	4	386	479	782	–	–	–
Cc1cc(C2(Nc3ncc(C(=O)NO)cn3)CC2)ccc1F [Compound 142]	–	–	(3x)	–	(4x)	–	(11x)	6	17	23	64	–	–	–
O=C(NO)c1cnc(NC2(c3cccc(F)c3F)CC2)nc1 [Compound 143]	–	–	(3.4x)	–	(5x)	–	(8.4x)	4	12	17	29	–	–	–
O=C(NO)c1cnc(NC2(c3ccc(F)cc3Cl)CC2)nc1 [Compound 144]	–	–	(7.9x)	–	(10.8x)	–	(18.3x)	3	25	34	58	–	–	–
O=C(NO)c1cnc(NC2(c3cc(C(F)(F)F)cc(C(F)(F)F)c3)CC2)nc1 [Compound 145]	–	–	(18.1x)	–	(23.5x)	–	(66.6x)	6	104	135	384	–	–	–
Cc1cc(C(F)(F)F)cc(C2(Nc3ncc(C(=O)NO)cn3)CC2)c1 [Compound 147]	–	–	(18.2x)	–	(20.9x)	–	(54x)	3	64	73	189	–	–	–
O=C(NO)c1cnc(NC2(c3ccc(F)cc3)CCCC2)nc1 [Compound 148]	–	–	(182.9x)	–	(193.1x)	–	(677.2x)	3	583	615	2160	–	–	–
COc1ccc(C2(Nc3ncc(C(=O)NO)cn3)CCCC2)cc1 [Compound 152]	–	–	(11.4x)	–	(10.1x)	–	(29.9x)	4	248	220	649	–	–	–
O=C(NO)c1cnc(NC2(c3cccs3)CCCCC2)nc1 [Compound 154]	–	–	(263.9x)	–	(307.8x)	–	(647.4x)	5	1370	1600	3360	–	–	–
CC(C)C[C@H](NC(=O)[C@H](Cc1ccccc1)NC(=O)c1cnccn1)B(O)O [bortezomib]	–	–	–	–	–	–	–	–	–	–	–	10	65	35

Further lines, with some results ahead:

IC50 (HDAC6 [1]) [nM]	IC50 (HDAC1) [nM]	HDAC1 fold over HDAC6 IC50 (selectivity for HDAC6) (HDAC1)	IC50 (HDAC2) [nM]	HDAC2 fold over HDAC6 IC50 (selectivity for HDAC6) (HDAC2)	IC50 (HDAC3) [nM]	HDAC3 fold over HDAC6 IC50 (selectivity for HDAC6) (HDAC3)	IC50 (HDAC6 [2]) [nM]	IC50 (HDAC1; read-out: HDAC1 IC50) [nM]	IC50 (HDAC2; read-out: HDAC2 IC50) [nM]	IC50 (HDAC3; read-out: HDAC3 IC50) [nM]	SMILES	complete and near complete responses (refractory relapsed MM) [%]	patients did not respond (refractory relapsed MM) [%]	responses (refractory relapsed MM) [%]
–	–	(24.4x)	–	(24.4x)	–	(80.8x)	4	95	96	316	O=C(NO)c1cnc(NC2(c3cc(F)cc(F)c3)CC2)nc1 [Compound 132]	–	–	–
–	–	(8x)	–	(9x)	–	(18.5x)	7	55	62	128	O=C(NO)c1cnc(NC2(c3ccc(F)c(F)c3)CC2)nc1 [Compound 140]	–	–	–
–	–	(80.1x)	–	(78x)	–	(312.9x)	4	339	330	1320	O=C(NO)c1cnc(NC2(c3cccc(F)c3)CCOCC2)nc1 [Compound 149]	–	–	–
–	–	(66.1x)	–	(68.4x)	–	(367.7x)	5	320	330	1780	O=C(NO)c1cnc(NC2(c3ccc(F)cc3)CCOCC2)nc1 [Compound 150]	–	–	–
–	–	(176.6x)	–	(143.8x)	–	(414.9x)	3	584	476	1370	O=C(NO)c1cnc(NC2(c3cccc(F)c3)CCCC2)nc1 [Compound 151]	–	–	–
–	–	(37.9x)	–	(34x)	–	(176x)	7	262	236	1220	O=C(NO)c1cnc(NC2(c3cc(F)cc(F)c3)CCOCC2)nc1 [Compound 155]	–	–	–

From patent US8614223B2, “Pyrimidine hydroxy amide compounds as protein deacetylase inhibitors and methods of use thereof” (Acetylon Pharmaceuticals, Inc., priority 2010, dated 2013)
